In US20210238187A1, “AZIRIDINE CONTAINING EPOTHILONE ANALOGS, METHODS OF SYNTHESIS, METHODS OF TREATMENT, AND DRUG CONJUGATES” (WILLIAM MARSH RICE UNIVERSITY, priority 2017, published 2021):
Where two headings read alike, the source gives them in different places.

Columns and labels:
[1] = test system: NCI/ADR-RES; experiment: Cytotoxicity (GI50) assay, NCI/ADR-RES; type: cell-based, human; details: Homo sapiens, NCI/ADR-RES, read-out: Cancer cell lines GI50, NCI/ADR-RES
[2] = test system: SNB-75; experiment: Cytotoxicity (GI50) assay, SNB-75; type: cell-based, human
[3] = test system: MES SA DX; experiment: Cytotoxicity assay (CellTiter-Glo), MES SA DX; type: cell-based, human; details: Homo sapiens, read-out: Cancer cell lines IC50, MES SA DX
[4] = test system: Tubulin; experiment: Tubulin assembly induction; type: biochemical
[5] = test system: HEK 293T; experiment: Cytotoxicity assay (CellTiter-Glo), HEK 293T; type: cell-based; details: Homo sapiens, 72 h, read-out: Cancer cell lines IC50, HEK 293T
[6] = test system: MCF-7; experiment: Cytotoxicity (GI50) assay, MCF-7; type: cell-based, human
[7] = test system: OVCAR-8; experiment: Cytotoxicity (GI50) assay, OVCAR-8; type: cell-based, human
[8] = test system: MDA-MB-435; experiment: Cytotoxicity (GI50) assay, MDA-MB-435; type: cell-based, human
[9] = test system: MES SA; experiment: Cytotoxicity assay (CellTiter-Glo), MES SA; type: cell-based, human; details: MES-SA, read-out: Cancer cell lines IC50, MES SA
[10] = Homo sapiens, SNB-75, read-out: Cancer cell lines GI50, SNB-75
[11] = Homo sapiens, MCF7, read-out: Cancer cell lines GI50, MCF-7
[12] = Homo sapiens, OVCAR-8, read-out: Cancer cell lines GI50, OVCAR-8
[13] = Homo sapiens, MDA-MB-435, read-out: Cancer cell lines GI50, MDA-MB-435

Compound: CSc1nc(/C=C(\C)[C@@H]2C[C@@H]3N(CCOC(C)=O)[C@]3(C)CCC[C@H](C)[C@H](OC(C)=O)[C@@H](C)C(=O)C(C)(C)[C@@H](OC(C)=O)CC(=O)O2)co1 (stereo partly drawn) [compound 18, (1S,3S,7S,10R,11S,12S,16R)-17-(2-Acetoxyethyl)-8,8,10,12,16-pentamethyl-3-{(1E)-1-[2-(methylsulfanyl)-1,3-oxazol-4-yl]prop-1-en-2-yl}-5,9-dioxo-4-oxa-17-azabicyclo[14.1.0]-heptadecane-7,11-diyl diacetate]
- GI50 [1]: 2300 nM
- GI50 [2, 10]: 290 nM
- IC50 ([3]; MES-SA, 72 h): 373 nM
- EC50 ([4]; […]): > 60000 nM
- IC50 [5]: 17.9 nM
- GI50 [6, 11]: 1100 nM
- GI50 [7, 12]: 290 nM
- GI50 [8, 13]: 120 nM
- IC50 ([9]; Homo sapiens, 72 h): 116 nM

Compound: CSc1cc(/C=C(\C)[C@@H]2C[C@@H]3N[C@]3(C)CCC[C@H](C)[C@H](O)[C@@H](C)C(=O)C(C)(C)[C@@H](O)CC(=O)O2)nn1C [compound 40, (1S,3S,7S,10R,11S,12S,16R)-7,11-Dihydroxy-8,8,10,12,16-pentamethyl-3-{(1E)-1-[1-methyl-5-(methylsulfanyl)-1H-pyrazol-3-yl]prop-1-en-2-yl}-4-oxa-17-azabicyclo[14.1.0]heptadecane-5,9-dione]
- GI50 [1]: 140 nM
- GI50 [2, 10]: 14 nM
- IC50 ([3]; MES-SA, 72 h): 41.6 nM
- EC50 ([4]; […]): 19000 nM
- IC50 [5]: 0.59 nM
- GI50 [6, 11]: 3.5 nM
- GI50 [7, 12]: 100 nM
- GI50 [8, 13]: 3.5 nM
- IC50 ([9]; Homo sapiens, 72 h): 0.36 nM

Compound: C/C(=C\c1cnon1)[C@@H]1C[C@@H]2N(CCO)[C@]2(C)CCC[C@H](C)[C@H](O)[C@@H](C)C(=O)C(C)(C)[C@@H](O)CC(=O)O1 (stereo partly drawn) [compound 27, (1S,3S,7S,10R,11S,12S,16R)-7,11-Dihydroxy-17-(2-hydroxyethyl)-8,8,10,12,16-pentamethyl-3-[(1E)-1-(1,2,5-oxadiazol-3-yl)prop-1-en-2-yl]-4-oxa-17-azabicyclo[14.1.0]heptadecane-5,9-dione]
- GI50 [1]: > 5000 nM
- GI50 [2, 10]: 450 nM
- IC50 ([3]; MES-SA, 72 h): ≥ 2500 nM
- EC50 ([4]; […]): > 60000 nM
- IC50 [5]: 11.7 nM
- GI50 [6, 11]: 140 nM
- GI50 [7, 12]: 580 nM
- GI50 [8, 13]: 120 nM
- IC50 ([9]; Homo sapiens, 72 h): 38.9 nM

Compound: CC(=O)OCCN1[C@H]2C[C@@H](/C(C)=C/c3ccn(Cn4cccn4)n3)OC(=O)C[C@H](O)C(C)(C)C(=O)[C@H](C)[C@@H](O)[C@@H](C)CCC[C@]21C (stereo partly drawn) [compound 26, 2-[(1S,3S,7S,10R,11S,12S,16R)-7,11-Dihydroxy-8,8,10,12,16-pentamethyl-5,9-dioxo-3-{(1E)-1-[1-(1H-pyrazol-1-ylmethyl)-1H-pyrazol-3-yl]prop-1-en-2-yl}-4-oxa-17-azabicyclo[14.1.0]heptadec-17-yl]ethyl acetate]
- GI50 [1]: 2700 nM
- GI50 [2, 10]: 50 nM
- IC50 ([3]; MES-SA, 72 h): > 400 nM
- EC50 ([4]; […]): 40000 nM
- IC50 [5]: 1.72 nM
- GI50 [6, 11]: 38 nM
- GI50 [7, 12]: 38 nM
- GI50 [8, 13]: 5.5 nM
- IC50 ([9]; Homo sapiens, 72 h): 5.9 nM

Compound: CC(=O)[C@@H]1C[C@@H]2N[C@]2(C)CCC[C@H](C)[C@H](O)[C@@H](C)C(=O)C(C)(C)[C@@H](O)CC(=O)O1 [compound 79, (1S,3S,7S,10R,11S,12S,16R)-3-Acetyl-7,11-dihydroxy-8,8,10,12,16-pentamethyl-4-oxa-17-azabicyclo[14.1.0]heptadecane-5,9-dione]
- GI50 [1]: > 5000 nM
- GI50 [2, 10]: > 5000 nM
- IC50 ([3]; MES-SA, 72 h): > 2500 nM
- EC50 ([4]; […]): > 60000 nM
- IC50 [5]: > 2500 nM
- GI50 [6, 11]: > 5000 nM
- GI50 [7, 12]: > 5000 nM
- GI50 [8, 13]: > 5000 nM
- IC50 ([9]; Homo sapiens, 72 h): > 2500 nM

Compound: C/C(=C\c1ccn(Cn2cccn2)n1)[C@@H]1C[C@@H]2N(CCO)[C@]2(C)CCC[C@H](C)[C@H](O)[C@@H](C)C(=O)C(C)(C)[C@@H](O)CC(=O)O1 (stereo partly drawn) [compound 25, (1S,3S,7S,10R,11S,12S,16R)-7,11-Dihydroxy-17-(2-hydroxyethyl)-8,8,10,12,16-pentamethyl-3-{(1E)-1-[1-(1H-pyrazol-1-ylmethyl)-1H-pyrazol-3-yl]prop-1-en-2-yl}-4-oxa-17-azabicyclo-[14.1.0]heptadecane-5,9-dione]
- GI50 [1]: > 5000 nM
- GI50 [2, 10]: 24 nM
- IC50 ([3]; MES-SA, 72 h): > 2500 nM
- EC50 ([4]; […]): > 60000 nM
- IC50 [5]: 27.7 nM
- GI50 [6, 11]: 32 nM
- GI50 [7, 12]: 130 nM
- GI50 [8, 13]: 19 nM
- IC50 ([9]; Homo sapiens, 72 h): 10.3 nM

Compound: CSc1nc(/C=C(\C)[C@@H]2C[C@@H]3N(CCO)[C@]3(C)CCC[C@H](C)[C@H](O)[C@@H](C)C(=O)C(C)(C)[C@@H](O)CC(=O)O2)co1 (stereo partly drawn) [compound 17, (1S,3S,7S,10R,11S,12S,16R)-7,11-Dihydroxy-17-(2-hydroxyethyl)-8,8,10,12,16-pentamethyl-3-{(1E)-1-[2-(methylsulfanyl)-1,3-oxazol-4-yl]prop-1-en-2-yl}-4-oxa-17-azabicyclo[14.1.0]-heptadecane-5,9-dione]
- GI50 [2, 10]: 13 nM
- IC50 ([3]; MES-SA, 72 h): 1.11 nM
- EC50 ([4]; […]): 4000 ± 1000 nM
- IC50 [5]: 0.05 nM
- GI50 [6, 11]: 7.5 nM
- GI50 [7, 12]: 25 nM
- GI50 [8, 13]: 3.5 nM
- IC50 ([9]; Homo sapiens, 72 h): 0.02 nM

Compound: C/C(=C\c1csc(C)n1)[C@@H]1C[C@H]2[C@@H](CCC[C@H](C)[C@H](O)[C@@H](C)C(=O)C(C)(C)[C@@H](O)CC(=O)O1)N2CCO (stereo partly drawn) [compound 9, (1S,3S,7S,10R,11S,12S,16R)-7,11-Dihydroxy-17-(2-hydroxyethyl)-8,8,10,12-tetramethyl-3-[(1E)-1-(2-methyl-1,3-thiazol-4-yl)prop-1-en-2-yl]-4-oxa-17-azabicyclo[14.1.0]heptadecane-5,9-dione, reference compound]
- IC50 ([3]; MES-SA, 72 h): 15.7 nM
- EC50 ([4]; […]): 1900 nM
- IC50 [5]: 0.67 nM
- GI50 [6, 11]: 2 nM
- GI50 [7, 12]: 3 nM
- IC50 ([9]; Homo sapiens, 72 h): 8.01 nM

Compound: CC1=CCC(C(C)=Cc2csc(C)n2)OC(=O)CC(O)C(C)(C)C(=O)C(C)C(O)C(C)CCC1 (stereo not shown) [compound 4, epothilone D, reference compound]
- GI50 [1]: 17 nM
- IC50 ([3]; MES-SA, 72 h): 9.7 nM
- EC50 [4]: 18000 nM
- IC50 [5]: 3.55 nM
- GI50 [6, 11]: 14 nM
- GI50 [7, 12]: 13 nM
- IC50 ([9]; Homo sapiens, 72 h): 6.84 nM

Compound: C#CCCN1[C@H]2C[C@@H](/C(C)=C/c3csc(SC)n3)OC(=O)C[C@H](O)C(C)(C)C(=O)[C@H](C)[C@@H](O)[C@@H](C)CCC[C@]21C (stereo partly drawn) [compound 39, (1S,3S,7S,10R,11S,12S,16R)-17-(But-3-yn-1-yl)-7,11-dihydroxy-8,8,10,12,16-pentamethyl-3-{(1E)-1-[2-(methylsulfanyl)-1,3-thiazol-4-yl]prop-1-en-2-yl}-4-oxa-17-azabicyclo[14.1.0]heptadecane-5,9-dione]
- GI50 [2, 10]: 31 nM
- IC50 ([3]; MES-SA, 72 h): 0.45 nM
- EC50 ([4]; […]): 3500 nM
- IC50 [5]: 0.09 nM
- GI50 [6, 11]: 30 nM
- GI50 [7, 12]: 18 nM
- GI50 [8, 13]: 3.5 nM
- IC50 ([9]; Homo sapiens, 72 h): 0.23 nM

Compound: CSc1nc(/C=C(\C)[C@@H]2C[C@@H]3N(CCOC(C)=O)[C@]3(C)CCC[C@H](C)[C@H](O)[C@@H](C)C(=O)C(C)(C)[C@@H](O)CC(=O)O2)cs1 (stereo partly drawn) [compound 36, 2-[(1S,3S,7S,10R,11S,12S,16R)-7,11-Dihydroxy-8,8,10,12,16-pentamethyl-3-{(1E)-1-[2-(methylsulfanyl)-1,3-thiazol-4-yl]prop-1-en-2-yl}-5,9-dioxo-4-oxa-17-azabicyclo[14.1.0]-heptadec-17-yl]ethyl acetate]
- GI50 [2, 10]: 23 nM
- IC50 ([3]; MES-SA, 72 h): 0.86 nM
- EC50 ([4]; […]): 4000 nM
- IC50 [5]: 0.07 nM
- GI50 [6, 11]: 5.5 nM
- GI50 [7, 12]: 18 nM
- GI50 [8, 13]: 3.5 nM
- IC50 ([9]; Homo sapiens, 72 h): 0.29 nM

Compound: C/C(=C\c1csc(C)n1)[C@@H]1C[C@@H]2N[C@@H]2CCC[C@H](C)[C@H](O)[C@@H](C)C(=O)C(C)(C)[C@@H](O)CC(=O)O1 [compound 8, 12,13-aziridinyl epothilone A, reference compound]
- GI50 [1]: 38 nM
- IC50 ([3]; MES-SA, 72 h): 16.9 nM
- EC50 ([4]; […]): > 40000 nM
- IC50 [5]: 0.95 nM
- GI50 [6, 11]: 2.5 nM
- GI50 [7, 12]: 5.5 nM
- IC50 ([9]; Homo sapiens, 72 h): 1.14 nM

Compound: C/C(=C\c1csc(N)n1)[C@@H]1C[C@@H]2N(CCO)[C@]2(C)CCC[C@H](C)[C@H](O)[C@@H](C)C(=O)C(C)(C)[C@@H](O)CC(=O)O1 (stereo partly drawn) [compound 15, (1S,3S,7S,10R,11S,12S,16R)-3-[(1E)-1-(2-Amino-1,3-thiazol-4-yl)prop-1-en-2-yl]-7,11-dihydroxy-17-(2-hydroxyethyl)-8,8,10,12,16-pentamethyl-4-oxa-17-azabicyclo[14.1.0]heptadecane-5,9-dione]
- GI50 ([1]; highly drug resistant human ovarian cancer cell line): 3800 nM
- GI50 ([2]; SNB-75, human glioblastoma cell line, read-out: Cancer cell lines GI50, SNB-75): 280 nM
- IC50 ([3]; MES SA cell line with marked multidrug resistance, 72 hours, CellTiter-Glo): > 1000 nM
- EC50 ([4]; […]): 13000 nM
- GI50 ([6]; MCF7, human breast cancer cell line, concentration required to decrease cell growth by 50%, read-out: Cancer cell lines GI50, MCF-7): 330 nM
- GI50 ([7]; OVCAR-8, human ovarian cancer cell line, read-out: Cancer cell lines GI50, OVCAR-8): 290 nM
- GI50 ([8]; MDA-MB-435, human melanoma cell line, read-out: Cancer cell lines GI50, MDA-MB-435): 220 nM
- IC50 ([9]; human uterine sarcoma cell line, 72 hours, CellTiter-Glo): 36.4 nM
